Molecules are shown by their SMILES.

A word on the IC50: it is the concentration at which inhibition is half-maximal. As usually defined, the logD is the decadic logarithm of the distribution of all forms, ionised or not, between an organic phase and buffer at a given pH.

The target in data set [1] is Transient receptor potential cation channel subfamily A member 1 (Rattus norvegicus, UniProt Q6RI86). Description: Antagonist activity at rat TRPA1 channel expressed in CHO-K1 cells tagged with GCaMP6 by measuring calcium flux measured after 10 mins by FLIPR tetra analysis. The format is cell-based.
Data set [2] has as its target Transient receptor potential cation channel subfamily A member 1 (Homo sapiens, UniProt O75762). In words: Antagonist activity at human TRPA1 channel expressed in CHO-K1 cells tagged with GCaMP6 by measuring calcium flux measured after 10 mins by FLIPR tetra analysis. In kind it is cell-based. On the technique in general: Calcium assays in cells follow changes in intracellular calcium, usually with a dye or a luminescent sensor.

Data set [3] in a line: Lipophilicity, logD of compound. The following applies: octanol/water. In kind it is physicochemical.
Data set [4] in a line: Mutagenecity in Salmonella typhimurium by Ames test. The format is toxicity. The following applies: salmonella sp.

Transient receptor potential cation channel subfamily A member 1 (Rattus norvegicus, UniProt Q6RI86), sequence (Q6RI86 whole entry): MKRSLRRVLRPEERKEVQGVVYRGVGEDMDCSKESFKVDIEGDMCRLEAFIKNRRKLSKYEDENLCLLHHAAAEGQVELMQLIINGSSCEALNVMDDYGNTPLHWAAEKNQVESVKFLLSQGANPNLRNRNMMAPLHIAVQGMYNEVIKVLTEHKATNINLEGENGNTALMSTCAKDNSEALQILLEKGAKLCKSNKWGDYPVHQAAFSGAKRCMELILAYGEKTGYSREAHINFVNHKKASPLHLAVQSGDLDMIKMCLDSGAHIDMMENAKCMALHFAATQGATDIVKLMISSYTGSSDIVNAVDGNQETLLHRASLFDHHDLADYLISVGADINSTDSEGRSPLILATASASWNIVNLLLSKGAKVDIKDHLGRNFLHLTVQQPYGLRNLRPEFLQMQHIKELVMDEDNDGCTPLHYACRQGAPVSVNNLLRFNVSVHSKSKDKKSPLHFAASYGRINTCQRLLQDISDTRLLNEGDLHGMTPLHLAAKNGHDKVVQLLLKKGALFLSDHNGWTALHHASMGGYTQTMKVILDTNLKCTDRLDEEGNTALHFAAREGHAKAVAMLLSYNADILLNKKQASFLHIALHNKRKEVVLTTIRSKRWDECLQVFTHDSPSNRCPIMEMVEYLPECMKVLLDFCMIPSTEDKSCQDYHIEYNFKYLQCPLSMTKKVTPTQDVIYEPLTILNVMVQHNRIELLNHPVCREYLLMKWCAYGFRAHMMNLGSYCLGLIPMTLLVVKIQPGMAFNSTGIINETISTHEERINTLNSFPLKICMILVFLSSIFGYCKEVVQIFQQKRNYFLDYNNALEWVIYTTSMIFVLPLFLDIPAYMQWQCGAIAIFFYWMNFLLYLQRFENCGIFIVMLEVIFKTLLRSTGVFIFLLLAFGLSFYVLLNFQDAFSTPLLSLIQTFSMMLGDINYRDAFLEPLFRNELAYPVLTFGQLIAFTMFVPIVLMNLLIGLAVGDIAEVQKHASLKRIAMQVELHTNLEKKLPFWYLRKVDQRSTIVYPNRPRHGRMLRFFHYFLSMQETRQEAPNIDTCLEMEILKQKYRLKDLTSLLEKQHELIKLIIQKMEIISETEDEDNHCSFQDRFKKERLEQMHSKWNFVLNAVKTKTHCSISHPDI
Transient receptor potential cation channel subfamily A member 1 (Homo sapiens, UniProt O75762), sequence (O75762 whole entry): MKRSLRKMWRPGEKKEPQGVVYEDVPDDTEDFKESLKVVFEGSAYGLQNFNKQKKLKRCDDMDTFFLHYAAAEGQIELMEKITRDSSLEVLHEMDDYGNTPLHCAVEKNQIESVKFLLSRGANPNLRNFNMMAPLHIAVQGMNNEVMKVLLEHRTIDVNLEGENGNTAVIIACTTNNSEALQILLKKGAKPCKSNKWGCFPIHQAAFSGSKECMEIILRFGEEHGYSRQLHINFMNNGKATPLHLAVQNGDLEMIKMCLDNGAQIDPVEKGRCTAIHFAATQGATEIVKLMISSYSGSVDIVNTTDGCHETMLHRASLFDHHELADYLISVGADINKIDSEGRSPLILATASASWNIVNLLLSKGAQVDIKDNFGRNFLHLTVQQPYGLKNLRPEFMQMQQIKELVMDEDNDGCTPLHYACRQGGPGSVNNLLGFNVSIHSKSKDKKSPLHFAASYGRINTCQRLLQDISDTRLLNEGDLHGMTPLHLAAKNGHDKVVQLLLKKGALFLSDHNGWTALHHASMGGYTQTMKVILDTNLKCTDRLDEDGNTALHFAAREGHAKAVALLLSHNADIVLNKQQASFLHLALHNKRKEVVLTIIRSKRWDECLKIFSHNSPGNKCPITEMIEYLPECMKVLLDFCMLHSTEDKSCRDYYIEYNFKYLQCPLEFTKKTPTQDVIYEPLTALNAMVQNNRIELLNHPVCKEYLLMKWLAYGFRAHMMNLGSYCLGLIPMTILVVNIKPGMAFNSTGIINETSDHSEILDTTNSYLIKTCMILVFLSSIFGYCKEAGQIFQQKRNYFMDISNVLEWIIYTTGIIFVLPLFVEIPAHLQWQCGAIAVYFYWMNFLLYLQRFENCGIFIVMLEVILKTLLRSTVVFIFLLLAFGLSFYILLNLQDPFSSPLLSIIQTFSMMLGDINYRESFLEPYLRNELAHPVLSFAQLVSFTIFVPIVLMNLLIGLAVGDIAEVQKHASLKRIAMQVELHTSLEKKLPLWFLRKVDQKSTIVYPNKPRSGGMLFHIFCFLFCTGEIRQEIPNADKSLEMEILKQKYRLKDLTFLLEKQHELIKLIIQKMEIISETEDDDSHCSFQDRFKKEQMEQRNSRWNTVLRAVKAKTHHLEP

For `Cc1ccc(CC2C(C)(C)CCCC2(O)C(F)(F)F)cc1` (mixture of isomers), the concentration for half-maximal inhibition (IC50) in data set [1] is > 12500 nM; in data set [2], 1270 nM. Take `O[C@]1(C(F)(F)F)CCCC[C@H]1N1CCc2cc(F)ccc21`: the IC50 in data set [1] is 10000 nM. The logD in data set [3] was 3.9. Regarding `CC1(C)CCCC(O)(C(F)(F)F)C1Cc1ccc(Cl)cc1` (mixture of isomers), the concentration for half-maximal inhibition (IC50) in data set [1] worked out at 11500 nM; in data set [2] it was 340 nM. Turning to `O=C(N[C@@H]1CCCC[C@]1(O)C(F)(F)F)c1ccc(F)cc1`, the IC50 in data set [1] was 15000 nM. `O[C@]1(C(F)(F)F)CCCC[C@H]1Nc1ccc(F)c(Cl)c1`: the concentration for half-maximal inhibition (IC50) in data set [1] was found to be 680 nM. In data set [3], the logD turned out to be 3.4. Moreover, the Activity entry in data set [4] is reported as “Non-Toxic”. On to `O[C@@]1(C(F)(F)F)CCCC[C@@H]1Cc1ccc(F)cc1`, for which, in data set [3], the logD was 3.8. As for `O[C@]1(C(F)(F)F)CCCC[C@H]1Cc1csc(Cl)c1`, the IC50 in data set [1] stood at 130 nM. Moreover, the logD in data set [3] stood at 4.3. For `O[C@]1(C(F)(F)F)CCCC[C@H]1Cc1ccncc1`, the IC50 in data set [1] was 5300 nM. `O=C1c2ccc(F)cc2CN1[C@@H]1CCCC[C@]1(O)C(F)(F)F` came in with a logD in data set [3] of 2.6. With `N#Cc1cc(C[C@@H]2CCCC[C@]2(O)C(F)(F)F)cs1`, the IC50 in data set [1] came out at 620 nM. The compound further came in with a logD in data set [3] of 3.2. Take `O[C@]1(C(F)(F)F)CCCC[C@H]1Oc1ccc(F)cc1`: the IC50 in data set [1] was found to be 120 nM. The logD in data set [3] worked out at 3.5.

`CC1(C)CCCC(O)(C(F)(F)F)C1Cc1ccc(F)cc1F` (mixture of isomers): the results for the IC50 in data set [1] and in data set [2] were > 10000 nM and 1000 nM, respectively. On the same counts, the results for `COc1ccc(CC2C(C)(C)CCCC2(O)C(F)(F)F)cc1` (mixture of isomers) are > 12500 nM and > 12500 nM.

For the compound `N#Cc1ccc(N[C@@H]2CCCC[C@]2(O)C(F)(F)F)cc1`, the half-maximal inhibitory concentration (IC50) in data set [1] worked out at 1300 nM. Also, the Activity entry in data set [4] is “Non-Toxic”. Take `CN([C@@H]1CCCC[C@]1(O)C(F)(F)F)S(=O)(=O)c1ccc(F)cc1`: the IC50 in data set [1] is 16000 nM. The compound also came in with a logD in data set [3] of 3.1.

Consider `COCCN(c1ccc(F)cc1)[C@@H]1CCCC[C@]1(O)C(F)(F)F` (racemic), for which the IC50 in data set [1] is 3800 nM. The same compound returned a logD in data set [3] of 3.8. On to `O[C@]1(C(F)(F)F)CCCC[C@H]1Cc1ccc(Cl)nc1`, for which, in data set [1], the IC50 came out at 2400 nM. This compound gave a logD in data set [3] of 3. In the case of `O[C@]1(C(F)(F)F)CCCC[C@H]1Nc1ccccc1` (racemic), the IC50 in data set [1] is 2300 nM. Take `O[C@]1(C(F)(F)F)CCCC[C@H]1Nc1ccc(Cl)c(Cl)c1`: in data set [1], the IC50 worked out at 650 nM. Also, the logD in data set [3] is 3.8. Besides, the Activity entry in data set [4] is recorded as “Non-Toxic”. For `CC1(C)CCCC(O)(C(F)(F)F)C1Cc1cccc(F)c1` (mixture of isomers), the IC50 in data set [1] worked out at 3800 nM; in data set [2], 750 nM. `OC(F)(F)[C@@]1(O)CCCC[C@H]1Cc1c[nH]c2ccccc12` (racemic) had a logD in data set [3] of 3.3. On to `CC1(C)CCCC(O)(C(F)(F)F)C1Cc1cccc(C#N)c1` (mixture of isomers), for which the IC50 was 13000 nM in data set [1] and 5550 nM in data set [2].

Take `O[C@]1(C(F)(F)F)CCCC[C@H]1Nc1ccc(Cl)cc1`: the 50% inhibitory concentration (IC50) in data set [1] was determined as 118 nM. Moreover, the Activity entry in data set [4] is listed as “Toxic”. `O[C@]1(C(F)(F)F)CCCC[C@H]1Cc1cncc(Cl)c1`: the IC50 in data set [1] was > 25000 nM.

As to `O[C@]1(C(F)(F)F)CCCC[C@H]1Nc1cccc(F)c1`, the IC50 in data set [1] is 950 nM. The Activity entry in data set [4] was “Non-Toxic”. `O[C@]1(C(F)(F)F)CCCC[C@H]1Nc1ccc(Cl)c(F)c1`: the IC50 in data set [1] was found to be 200 nM. For the same compound, the Activity entry in data set [4] is recorded as “Non-Toxic”.

As for `CN(c1ccc(F)cc1)[C@@H]1CCCC[C@]1(O)C(F)(F)F`, the IC50 in data set [1] is 21000 nM. Also, in data set [3], the logD was determined as 3.9. For `O[C@]1(C(F)(F)F)CCCC[C@H]1Cc1ccc(Cl)cn1`, in data set [1], the concentration for half-maximal inhibition (IC50) is > 25000 nM.

With `O[C@]1(C(F)(F)F)CCCC[C@H]1Cc1ncc(Cl)s1`, the concentration for half-maximal inhibition (IC50) in data set [1] was found to be 1200 nM. With `O[C@]1(C(F)(F)F)CCCC[C@H]1Nc1ccc(F)cn1`, in data set [1], the IC50 stood at 6300 nM. Also, the Activity entry in data set [4] is “Non-Toxic”.

The values above are taken from ChEMBL document CHEMBL5316309, “Discovery of BAY-390, a Selective CNS Penetrant Chemical Probe as Transient Receptor Potential Ankyrin 1 (TRPA1) Antagonist” (J Med Chem, 2023).
